Assay results reported in patent publication EP0745595A1, “3-(3-Aryloxyphenyl)-1-(substituted methyl)-s-triazine-2,4,6-oxo or thiotrione herbicidal agents” (American Cyanamid Company, priority 1995, dated 1996).

Key:
Format in all cases: in vivo
[1] = tested on: CHENOPODIUM ALBUM, L.; experiment: Preemergence herbicidal evaluation, CHEAL (Lambsquarters, Common); conditions: four to five weeks after treatment
Method in brief: (§1)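 Injury scored visually (0–9; stand, vigor, malformation, size, chlorosis) versus untreated control, four to five weeks post-treatment. Application: aqueous acetone spray onto freshly planted soil cups, equivalent to about 0.125 to 0.50 kg/ha, plants then kept under standard greenhouse care.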

[2] = tested on: ABUTILON THEOPHRASTI, MEDIC.; experiment: Preemergence herbicidal evaluation, ABUTH (Velvetleaf); conditions: four to five weeks after treatment
From the text: (§2) Results of herbicide evaluation are expressed on a rating scale (0-9). The scale is based upon a visual observation of plant stand, vigor, malformation, size, chlorosis and overall plant appearance as compared with a control.
(§3) The preemergence herbicidal activity of the test compounds of the present invention is exemplified by the following tests in which the seeds of a variety of monocotyledonous and dicotyledonous plants are separately mixed with potting soil and planted on top of approximately one inch of soil in separate pint cups. […] The treated cups are then placed on greenhouse benches, watered and cared for in accordance with conventional greenhouse procedures. From four to five weeks after treatment, the tests are terminated and each cup is examined and rated according to the rating system provided in Example 40.
(§4) The compounds evaluated are reported by compound number given in Example 40.

[3] = tested on: CASSIA OBTUSIFOLIA, L.; experiment: Preemergence herbicidal evaluation, CASOB (Sicklepod); conditions: four to five weeks after treatment
Method in brief: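 Preemergence herbicidal activity against sicklepod was assessed by planting seed mixed with potting soil atop about one inch of soil in pint cups. After treatment the cups were watered and handled per standard greenhouse practice. Tests ended four to five weeks later, with plant stand, vigor, malformation, size, chlorosis and overall appearance scored 0-9 relative to a control.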

[4] = tested on: SETARIA VIRIDIS, (L) BEAU; experiment: Preemergence herbicidal evaluation, SETVI (Foxtail, Green); conditions: four to five weeks after treatment
From the text: as §2, §3, §4

[5] = tested on: ORYZA SATIVA, L. TEBONNET; experiment: Preemergence herbicidal evaluation, ORYSAT (Rice, Tebonnet); conditions: four to five weeks after treatment
From the text: as §2, §3, §4

[6] = tested on: CYPERUS IRIA; experiment: Preemergence weed control under flooded paddy conditions, CYPIR (Rice Flatsedge); conditions: preemergence weeds, rated three to four weeks after treatment
Method in brief: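 This preemergence test mimicked flooded paddy conditions: rice flatsedge propagules were sown in the upper 0.5 cm of silt loam in undrained 32 oz. containers (10.5 cm diameter), with water held 1.5 to 3 cm over the soil. After normal greenhouse care, plants were scored 0-9 for stand, vigor, malformation, size, chlorosis and appearance relative to controls.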

[7] = tested on: AMBROSIA ARTEMISIIFOLIA, L.; experiment: Preemergence herbicidal evaluation, AMBEL (Ragweed, Common); conditions: four to five weeks after treatment
Method in brief: as §1

[8] = tested on: […], PRESL.; experiment: Preemergence weed control under flooded paddy conditions, MOOVA (Monochoria); conditions: preemergence weeds, rated three to four weeks after treatment
Method in brief: (§5)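 In undrained pots of silt loam flooded to 1.5-3 cm, compounds are pipetted into the water before emergence at the equivalent of about 0.5, 0.25, 0.125 and 0.063 kg/ha. Plants are scored 0-9 for stand, vigor, malformation, size and chlorosis at test end (3-4 weeks).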

[9] = tested on: GLYCINE MAX(L) MERR. CV. WILLIAMS; experiment: Preemergence herbicidal evaluation, GLXMAW (Soybean, Williams); conditions: four to five weeks after treatment
Method in brief: as §1

[10] = tested on: ECHINOCHLOA CRUS-GALLI, (L) BEAU; experiment: Preemergence herbicidal evaluation, ECHCG (Barnyardgrass); conditions: four to five weeks after treatment
Method in brief: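 In this preemergence herbicide test, cups holding seeds of ECHCG sown in potting soil over roughly one inch of soil were treated and then grown under conventional greenhouse care. Tests were ended four to five weeks after treatment, and injury was scored 0-9 from stand, vigor, malformation, size, chlorosis and overall appearance relative to a control.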

[11] = tested on: TRITICUM AESTIVUM, CV. APOLLO; experiment: Preemergence herbicidal evaluation, TRZAWO (Wheat, Winter, CV. APOLLO); conditions: four to five weeks after treatment
Method in brief: as §1

[12] = tested on: CHENOPODIUM ALBUM, L.; experiment: Postemergence herbicidal evaluation, CHEAL (Lambsquarters, Common); conditions: rated four to five weeks after treatment, averaged
Method in brief: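 Postemergence herbicidal activity on Chenopodium album was tested by spraying two-week-old seedlings grown in jiffy flats with compound in acetone/water (50/50) plus 0.5% TWEEN®20, using a 40 psi nozzle. Four to five weeks after treatment, stand, vigor, malformation, size, chlorosis and overall appearance were scored 0-9 relative to controls, with repeat tests averaged.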

[13] = tested on: ZEA MAYS L.; experiment: Preemergence herbicidal evaluation, ZEAMX (Corn, Field); conditions: four to five weeks after treatment
Method in brief: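 Preemergence herbicidal activity on field corn: seeds in potting soil were sown atop roughly one inch of soil in separate pint cups, treated, and grown under standard greenhouse care. Four to five weeks post-treatment, stand, vigor, malformation, size, chlorosis and overall appearance were compared with a control and scored 0-9.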

[14] = tested on: CYPERUS SEROTINUS, ROTTB.; experiment: Preemergence weed control under flooded paddy conditions, CYPSE (Flatsedge); conditions: preemergence weeds, rated three to four weeks after treatment
Method in brief: as §5

[15] = tested on: SAGITTARIA PYGMAEA, L.; experiment: Preemergence weed control under flooded paddy conditions, SAGPY (Arrowhead (Pygmaea)); conditions: preemergence weeds, rated three to four weeks after treatment
Method in brief: as §5

[16] = tested on: ABUTILON THEOPHRASTI, MEDIC.; experiment: Postemergence herbicidal evaluation, ABUTH (Velvetleaf); conditions: rated four to five weeks after treatment, averaged
Method in brief: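 This postemergence herbicide test used two-week-old velvetleaf seedlings grown in jiffy flats. Each compound was sprayed at 40 psi as a dispersion in 50/50 acetone/water with 0.5% TWEEN®20 surfactant. Plants then received routine greenhouse care. After four to five weeks, injury was scored visually on a 0-9 scale against a control, and replicate tests were averaged.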

[17] = tested on: ORYZA SATIVA, L. TEBONNET; experiment: Rice tolerance to post-transplant applications under flooded paddy conditions, ORYSAT (Rice, Tebonnet); conditions: post-transplant rice, rated three to four weeks after treatment;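 further: applied to flooded soil surface three days after transplanting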
Method in brief: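 Greenhouse pots of silt loam, each with two transplanted ten-day-old seedlings, are held under 1.5 to 3 cm of standing water. Three days later the compound is applied to the flooded surface at about 0.5, 0.25, 0.125 or 0.063 kg/ha. Damage is scored visually 0-9 after 3-4 weeks.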

[18] = tested on: IPOMOEA SPP.; experiment: Preemergence herbicidal evaluation, IPOSS (Morningglory spp.); conditions: four to five weeks after treatment
Method in brief: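 This preemergence greenhouse test scored herbicidal effect on morningglory planted in pint cups, with seed mixed into potting soil and placed over about one inch of soil. After treatment the cups were watered and kept under conventional care. At four to five weeks, plant stand, vigor, malformation, size, chlorosis and overall appearance were compared with a control and rated 0-9.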

CCOC(=O)Cn1c(=O)[nH]c(=O)n(-c2cc(Oc3c(F)cc(C(F)(F)F)cc3Cl)ccc2C#N)c1=O [Compound 10, Ethyl 3-{5-[(2-chloro-α,α,α,6-tetrafluoro-p-tolyl)oxy]-2-cyanophenyl}tetrahydro-2,4,6-trioxo-s-triazine-1(2H)-acetate]
0.0: ABUTH rating ([2]; Rate 0.125 kg/ha) | ABUTH rating ([2]; Rate 0.250 kg/ha) | ABUTH rating ([2]; Rate 0.500 kg/ha) | CASOB rating ([3]; Rate 0.125 kg/ha) | CASOB rating ([3]; Rate 0.250 kg/ha) | CASOB rating ([3]; Rate 0.500 kg/ha) | SETVI rating ([4]; Rate 0.125 kg/ha) | SETVI rating ([4]; Rate 0.250 kg/ha) | SETVI rating ([4]; Rate 0.500 kg/ha) | AMBEL rating ([7]; Rate 0.125 kg/ha) | AMBEL rating ([7]; Rate 0.250 kg/ha) | AMBEL rating ([7]; Rate 0.500 kg/ha) | GLXMAW rating ([9]; Rate 0.125 kg/ha) | GLXMAW rating ([9]; Rate 0.250 kg/ha) | GLXMAW rating ([9]; Rate 0.500 kg/ha) | ECHCG rating ([10]; Rate 0.125 kg/ha) | ECHCG rating ([10]; Rate 0.250 kg/ha) | ECHCG rating ([10]; Rate 0.500 kg/ha) | TRZAWO rating ([11]; Rate 0.125 kg/ha) | TRZAWO rating ([11]; Rate 0.250 kg/ha) | TRZAWO rating ([11]; Rate 0.500 kg/ha) | ZEAMX rating ([13]; Rate 0.125 kg/ha) | ZEAMX rating ([13]; Rate 0.250 kg/ha) | ZEAMX rating ([13]; Rate 0.500 kg/ha) | CYPSE herbicidal rating ([14]; Rate 0.063 kg/ha) | CYPSE herbicidal rating ([14]; Rate 0.125 kg/ha) | CYPSE herbicidal rating ([14]; Rate 0.250 kg/ha) | SAGPY herbicidal rating ([15]; Rate 0.063 kg/ha) | SAGPY herbicidal rating ([15]; Rate 0.125 kg/ha) | SAGPY herbicidal rating ([15]; Rate 0.250 kg/ha) | SAGPY herbicidal rating ([15]; Rate 0.500 kg/ha) | ORYSAT herbicidal rating (rice tolerance) ([17]; Rate 0.063 kg/ha)
2.0: ORYSAT rating ([5]; Rate 0.125 kg/ha) | ORYSAT rating ([5]; Rate 0.250 kg/ha) | ORYSAT rating ([5]; Rate 0.500 kg/ha)
9.0: CHEAL rating ([1]; Rate 0.125 kg/ha) | CHEAL rating ([1]; Rate 0.250 kg/ha) | CHEAL rating ([1]; Rate 0.500 kg/ha) | CYPIR herbicidal rating ([6]; Rate 0.063 kg/ha) | CYPIR herbicidal rating ([6]; Rate 0.125 kg/ha) | CYPIR herbicidal rating ([6]; Rate 0.250 kg/ha) | CYPIR herbicidal rating ([6]; Rate 0.500 kg/ha) | MOOVA herbicidal rating ([8]; Rate 0.063 kg/ha) | MOOVA herbicidal rating ([8]; Rate 0.125 kg/ha) | MOOVA herbicidal rating ([8]; Rate 0.250 kg/ha) | MOOVA herbicidal rating ([8]; Rate 0.500 kg/ha) | CHEAL, herbicide rating (0-9) ([12]; Rate 0.125 kg/ha) | CHEAL, herbicide rating (0-9) ([12]; Rate 0.250 kg/ha) | CHEAL, herbicide rating (0-9) ([12]; Rate 0.500 kg/ha) | ABUTH, herbicide rating (0-9) ([16]; Rate 0.125 kg/ha) | ABUTH, herbicide rating (0-9) ([16]; Rate 0.250 kg/ha) | ABUTH, herbicide rating (0-9) ([16]; Rate 0.500 kg/ha)
1.0: ORYSAT herbicidal rating (rice tolerance) ([17]; Rate 0.125 kg/ha) | ORYSAT herbicidal rating (rice tolerance) ([17]; Rate 0.250 kg/ha) | ORYSAT herbicidal rating (rice tolerance) ([17]; Rate 0.500 kg/ha)

CCOC(=O)Cn1c(=O)n(CC(=O)OC)c(=O)n(-c2cc(Oc3c(F)cc(C(F)(F)F)cc3Cl)ccc2C#N)c1=O [Compound 12, 1-Ethyl methyl 5-{5-[(2-chloro-α,α,α,6-tetrafluoro-p-tolyl)oxy]-2-cyanophenyl}-dihydro-2,4,6-trioxo-s-triazine-1,3(2H,4H)-diacetate]
0.0: CHEAL rating ([1]; Rate 0.125 kg/ha) | CHEAL rating ([1]; Rate 0.250 kg/ha) | CHEAL rating ([1]; Rate 0.500 kg/ha) | ABUTH rating ([2]; Rate 0.125 kg/ha) | ABUTH rating ([2]; Rate 0.250 kg/ha) | ABUTH rating ([2]; Rate 0.500 kg/ha) | SETVI rating ([4]; Rate 0.125 kg/ha) | SETVI rating ([4]; Rate 0.250 kg/ha) | SETVI rating ([4]; Rate 0.500 kg/ha) | ORYSAT rating ([5]; Rate 0.125 kg/ha) | ORYSAT rating ([5]; Rate 0.250 kg/ha) | ORYSAT rating ([5]; Rate 0.500 kg/ha) | AMBEL rating ([7]; Rate 0.125 kg/ha) | AMBEL rating ([7]; Rate 0.250 kg/ha) | AMBEL rating ([7]; Rate 0.500 kg/ha) | GLXMAW rating ([9]; Rate 0.125 kg/ha) | GLXMAW rating ([9]; Rate 0.250 kg/ha) | GLXMAW rating ([9]; Rate 0.500 kg/ha) | IPOSS rating ([18]; Rate 0.125 kg/ha) | IPOSS rating ([18]; Rate 0.250 kg/ha) | IPOSS rating ([18]; Rate 0.500 kg/ha) | ECHCG rating ([10]; Rate 0.125 kg/ha) | ECHCG rating ([10]; Rate 0.250 kg/ha) | ECHCG rating ([10]; Rate 0.500 kg/ha) | TRZAWO rating ([11]; Rate 0.125 kg/ha) | TRZAWO rating ([11]; Rate 0.250 kg/ha) | TRZAWO rating ([11]; Rate 0.500 kg/ha) | ZEAMX rating ([13]; Rate 0.125 kg/ha) | ZEAMX rating ([13]; Rate 0.250 kg/ha) | ZEAMX rating ([13]; Rate 0.500 kg/ha) | SAGPY herbicidal rating ([15]; Rate 0.063 kg/ha) | SAGPY herbicidal rating ([15]; Rate 0.125 kg/ha) | SAGPY herbicidal rating ([15]; Rate 0.250 kg/ha) | SAGPY herbicidal rating ([15]; Rate 0.500 kg/ha) | ORYSAT herbicidal rating (rice tolerance) ([17]; Rate 0.063 kg/ha) | ORYSAT herbicidal rating (rice tolerance) ([17]; Rate 0.125 kg/ha) | ORYSAT herbicidal rating (rice tolerance) ([17]; Rate 0.250 kg/ha)
1.0: ORYSAT herbicidal rating (rice tolerance) ([17]; Rate 0.500 kg/ha)
9.0: CHEAL, herbicide rating (0-9) ([12]; Rate 0.125 kg/ha) | CHEAL, herbicide rating (0-9) ([12]; Rate 0.250 kg/ha) | CHEAL, herbicide rating (0-9) ([12]; Rate 0.500 kg/ha)
